In brackets after ≈: the same amount, converted by molar mass. Where two headings read alike, the source gives them in different places.
Experiments:
Experiment in all cases: CLSI broth microplate assay, MIC
Assay type in all cases: cell-based
MRSA strain EMRSA-15 = settings: Staphylococcus aureus, read-out: Minimum inhibitory concentration (MIC mg/L) EMRSA-15
[1] = test system: community-associated MRSA isolate USA300; settings: Staphylococcus aureus, read-out: Minimum inhibitory concentration (MIC mg/L) USA300
MRSA strain EMRSA-16 = settings: Staphylococcus aureus, read-out: Minimum inhibitory concentration (MIC mg/L) EMRSA-16
E. faecalis VRE1 = settings: Enterococcus faecalis
MRSA strain BB568 = settings: Staphylococcus aureus, read-out: Minimum inhibitory concentration (MIC mg/L) BB568
E. faecium VRE10 = settings: Enterococcus faecium
[2] = test system: S. aureus VISA strain Mu50; settings: Staphylococcus aureus, read-out: Minimum inhibitory concentration (MIC mg/L) Mu50
[3] = VRE1, read-out: Minimum inhibitory concentration (MIC mg/L) VRE1
[4] = VRE10, read-out: Minimum inhibitory concentration (MIC mg/L) VRE10
[5] = EMRSA-15, Mueller-Hinton broth, 37° C.
[6] = EMRSA-16, Mueller-Hinton broth, 37° C.
[7] = VRE1, Mueller-Hinton broth, 37° C., read-out: Minimum inhibitory concentration (MIC mg/L) VRE1
[8] = BB568, Mueller-Hinton broth, 37° C.
[9] = VRE10, Mueller-Hinton broth, 37° C., read-out: Minimum inhibitory concentration (MIC mg/L) VRE10
[10] = Mu50, Mueller-Hinton broth, 37° C.

Compound	MIC (MRSA strain EMRSA-15)	MIC [1]	MIC (MRSA strain EMRSA-16)	MIC (E. faecalis VRE1; [3])	MIC (MRSA strain BB568)	MIC (E. faecium VRE10; [4])	MIC [2]	MIC (MRSA strain EMRSA-15; [5])	MIC (MRSA strain EMRSA-16; [6])	MIC (E. faecalis VRE1; [7])	MIC (MRSA strain BB568; [8])	MIC (E. faecium VRE10; [9])	MIC [2, 10]
COc1cc2c(cc1OCCCC(=O)Nc1cc(C(=O)Nc3ccc(N4CCOCC4)nc3)n(C)c1)N=C[C@@H]1CCCN1C2=O [Compound 31, (S)-4-(4-((7-methoxy-5-oxo-2,3,5,11a-tetrahydro-1H-benzo[e]pyrrolo[1,2-a][1,4]diazepin-8-yl)oxy)butanamido)-1-methyl-N-(6-morpholinopyridin-3-yl)-1H-pyrrole-2-carboxamide]	0.5 mg/L (≈ 0.812 µM)	1 mg/L (≈ 1.62 µM)	4 mg/L (≈ 6.5 µM)	1 mg/L (≈ 1.62 µM)	4 mg/L (≈ 6.5 µM)	0.5 mg/L (≈ 0.812 µM)							
COC(=O)c1cc(NC(=O)c2cc(NC(=O)c3cc(NC(=O)c4cc(NC(=O)c5cc(-c6ccc(NC(=O)CCCOc7cc8c(cc7OC)C(=O)N7CCC[C@H]7C=N8)cc6)cn5C)cn4C)cn3C)cn2C)cn1C [Compound 59]	2 mg/L (≈ 1.94 µM)	16 to 32 mg/L (≈ 15.5 to 31 µM)	16 mg/L (≈ 15.5 µM)	32 mg/L (≈ 31 µM)	16 mg/L (≈ 15.5 µM)	4 mg/L (≈ 3.87 µM)	4 mg/L (≈ 3.87 µM)						
COc1cc2c(cc1OCCCC(=O)Nc1cc(C(=O)Nc3ccc(N4CCOCC4)cc3)n(C)c1)N=C[C@@H]1CCCN1C2=O [Compound 30, (S)-4-(4-((7-methoxy-5-oxo-2,3,5,11a-tetrahydro-1H-benzo[e]pyrrolo[1,2-a][1,4]diazepin-8-yl)oxy)butanamido)-1-methyl-N-(4-morpholinophenyl)-1H-pyrrole-2-carboxamide]		0.5 mg/L (≈ 0.813 µM)						0.5 mg/L (≈ 0.813 µM)	2 mg/L (≈ 3.25 µM)	1 mg/L (≈ 1.63 µM)	2 mg/L (≈ 3.25 µM)	0.5 mg/L (≈ 0.813 µM)	
COc1cc2c(cc1OCCCC(=O)Nc1ccc(-c3cc(C(=O)Nc4ccc(N5CCOCC5)nc4)n(C)c3)cc1)N=C[C@@H]1CCCN1C2=O [Compound 53, (S)-4-(4-(4-((7-methoxy-5-oxo-2,3,5,11a-tetrahydro-1H-benzo[e]pyrrolo[1,2-a][1,4]diazepin-8-yl)oxy)butanamido)phenyl)-1-methyl-N-(6-morpholinopyridin-3-yl)-1H-pyrrole-2-carboxamide]	1 mg/L (≈ 1.45 µM)	4 mg/L (≈ 5.78 µM)	2 to 4 mg/L (≈ 2.89 to 5.78 µM)	1 mg/L (≈ 1.45 µM)	4 mg/L (≈ 5.78 µM)	0.5 mg/L (≈ 0.723 µM)	2 mg/L (≈ 2.89 µM)						
COc1cc2c(cc1OCCCC(=O)Nc1ccc(-c3cc(C(=O)Nc4ccc(N5CCOCC5)cc4)n(C)c3)cc1)N=C[C@@H]1CCCN1C2=O [Compound 49, (S)-4-(4-(4-((7-methoxy-5-oxo-2,3,5,11a-tetrahydro-1H-benzo[e]pyrrolo[1,2-a][1,4]diazepin-8-yl)oxy)butanamido)phenyl)-1-methyl-N-(4-morpholinophenyl)-1H-pyrrole-2-carboxamide]	2 mg/L (≈ 2.9 µM)	2 mg/L (≈ 2.9 µM)	2 mg/L (≈ 2.9 µM)	0.5 mg/L (≈ 0.724 µM)	2 mg/L (≈ 2.9 µM)	0.5 to 1 mg/L (≈ 0.724 to 1.45 µM)	1 mg/L (≈ 1.45 µM)						
COc1cc2c(cc1OCCCC(=O)Nc1cn(C)c(C(=O)Nc3ccc(N4CCOCC4)cc3)n1)N=C[C@@H]1CCCN1C2=O [Compound 37, (S)-4-(4-((7-methoxy-5-oxo-2,3,5,11a-tetrahydro-1H-benzo[e]pyrrolo[1,2-a][1,4]diazepin-8-yl)oxy)butanamido)-1-methyl-N-(4-morpholinophenyl)-1H-imidazole-2-carboxamide]	0.125 mg/L (≈ 0.203 µM)	0.125 mg/L (≈ 0.203 µM)	0.5 mg/L (≈ 0.812 µM)	0.25 mg/L (≈ 0.406 µM)	0.5 mg/L (≈ 0.812 µM)	0.125 mg/L (≈ 0.203 µM)							
COC(=O)c1cc(NC(=O)c2cc(-c3ccc(NC(=O)CCCOc4cc5c(cc4OC)C(=O)N4CCC[C@H]4C=N5)cc3)co2)cn1C [Compound 54, (S)-methyl 4-(4-(4-(4-((7-methoxy-5-oxo-2,3,5,11a-tetrahydro-1H-benzo[e]pyrrolo[1,2-a][1,4]diazepin-8-yl)oxy)butanamido)phenyl)furan-2-carboxamido)-1-methyl-1H-pyrrole-2-carboxylate]		0.06 mg/L (≈ 0.0918 µM)						< 0.03 mg/L	0.06 mg/L (≈ 0.0918 µM)	0.06 mg/L (≈ 0.0918 µM)	0.125 mg/L (≈ 0.191 µM)	< 0.03 mg/L	0.03 mg/L (≈ 0.0459 µM)
COC(=O)c1ccc(-c2ccc(NC(=O)CCCOc3cc4c(cc3OC)C(=O)N3CCC[C@H]3C=N4)cc2)s1 [Compound 18, (S)-methyl 5-(4-(4-((7-methoxy-5-oxo-2,3,5,11a-tetrahydro-1H-benzo[e]pyrrolo[1,2-a][1,4]diazepin-8-yl)oxy)butanamido)phenyl)thiophene-2-carboxylate, reference compound]	> 32 mg/L	32 mg/L (≈ 58.4 µM)	> 32 mg/L	> 32 mg/L	> 32 mg/L	16 mg/L (≈ 29.2 µM)	> 32 mg/L						
COc1cc2c(cc1OCCCC(=O)Nc1cc(C(=O)Nc3ccc4occc4c3)n(C)c1)N=C[C@@H]1CCCN1C2=O [Compound 26, (S)—N-(benzofuran-5-yl)-4-(4-((7-methoxy-5-oxo-2,3,5,11a-tetrahydro-1H-benzo[e]pyrrolo[1,2-a][1,4]diazepin-8-yl)oxy)butanamido)-1-methyl-1H-pyrrole-2-carboxamide]		0.125 mg/L (≈ 0.219 µM)	0.125 mg/L (≈ 0.219 µM)	0.06 to 0.125 mg/L (≈ 0.105 to 0.219 µM)	0.125 mg/L (≈ 0.219 µM)			0.06 mg/L (≈ 0.105 µM)				0.06 mg/L (≈ 0.105 µM)	0.06 mg/L (≈ 0.105 µM)
COc1cc2c(cc1OCCCC(=O)Nc1cn(C)c(C(=O)Nc3ccc(N4CCOCC4)nc3)n1)N=C[C@@H]1CCCN1C2=O [Compound 40, (S)-4-(4-((7-methoxy-5-oxo-2,3,5,11a-tetrahydro-1H-benzo[e]pyrrolo[1,2-a][1,4]diazepin-8-yl)oxy)butanamido)-1-methyl-N-(6-morpholinopyridin-3-yl)-1H-imidazole-2-carboxamide]	0.125 mg/L (≈ 0.203 µM)	0.125 mg/L (≈ 0.203 µM)	0.5 mg/L (≈ 0.811 µM)	0.25 mg/L (≈ 0.405 µM)	0.5 mg/L (≈ 0.811 µM)	0.125 mg/L (≈ 0.203 µM)							
COc1cc2c(cc1OCCCC(=O)Nc1ccc(-c3cc(C(=O)NCc4ccc(OCCN5CCOCC5)cc4)n(C)c3)cc1)N=C[C@@H]1CCCN1C2=O [Compound 52, (S)-4-(4-(4-((7-methoxy-5-oxo-2,3,5,11a-tetrahydro-1H-benzo[e]pyrrolo[1,2-a][1,4]diazepin-8-yl)oxy)butanamido)phenyl)-1-methyl-N-(4-(2-morpholinoethoxyl)benzyl)-1H-pyrrole-2-carboxamide]	4 mg/L (≈ 5.34 µM)	4 mg/L (≈ 5.34 µM)	1 to 2 mg/L (≈ 1.34 to 2.67 µM)	2 mg/L (≈ 2.67 µM)	4 mg/L (≈ 5.34 µM)	1 mg/L (≈ 1.34 µM)	2 mg/L (≈ 2.67 µM)						
COc1cc2c(cc1OCCCC(=O)Nc1cn(C)c(C(=O)Nc3ccc(OCCN4CCOCC4)cc3)n1)N=C[C@@H]1CCCN1C2=O [Compound 39, (S)-4-(4-((7-methoxy-5-oxo-2,3,5,11a-tetrahydro-1H-benzo[e]pyrrolo[1,2-a][1,4]diazepin-8-yl)oxy)butanamido)-1-methyl-N-(4-(2-morpholinoethoxyl)phenyl)-1H-imidazole-2-carboxamide]		0.5 mg/L (≈ 0.758 µM)						0.25 mg/L (≈ 0.379 µM)	0.25 mg/L (≈ 0.379 µM)	0.125 mg/L (≈ 0.189 µM)	0.25 to 0.5 mg/L (≈ 0.379 to 0.758 µM)	0.5 mg/L (≈ 0.758 µM)	0.125 mg/L (≈ 0.189 µM)
COc1cc2c(cc1OCCCC(=O)Nc1ccc(-c3cc(C(=O)Nc4ccc(OCCN5CCOCC5)cc4)n(C)c3)cc1)N=C[C@@H]1CCCN1C2=O [Compound 51, (S)-4-(4-(4-((7-methoxy-5-oxo-2,3,5,11a-tetrahydro-1H-benzo[e]pyrrolo[1,2-a][1,4]diazepin-8-yl)oxy)butanamido)phenyl)-1-methyl-N-(4-(2-morpholinoethoxyl)phenyl)-1H-pyrrole-2-carboxamide]		2 mg/L (≈ 2.72 µM)						2 mg/L (≈ 2.72 µM)	2 mg/L (≈ 2.72 µM)	0.5 mg/L (≈ 0.68 µM)	2 mg/L (≈ 2.72 µM)	1 mg/L (≈ 1.36 µM)	1 mg/L (≈ 1.36 µM)
COc1cc2c(cc1OCCCC(=O)Nc1cc(C(=O)Nc3ccc4sccc4c3)n(C)c1)N=C[C@@H]1CCCN1C2=O [Compound 27, (S)—N-(benzo[b]thiophen-5-yl)-4-(4-((7-methoxy-5-oxo-2,3,5,11a-tetrahydro-1H-benzo[e]pyrrolo[1,2-a][1,4]diazepin-8-yl)oxy)butanamido)-1-methyl-1H-pyrrole-2-carboxamide]		0.06 to 0.125 mg/L (≈ 0.102 to 0.213 µM)						0.03 mg/L (≈ 0.0512 µM)	0.125 mg/L (≈ 0.213 µM)	0.125 mg/L (≈ 0.213 µM)	0.125 mg/L (≈ 0.213 µM)	0.03 mg/L (≈ 0.0512 µM)	< 0.03 mg/L
COC(=O)c1cc2cc(NC(=O)c3nc(NC(=O)CCCOc4cc5c(cc4OC)C(=O)N4CCC[C@H]4C=N5)cn3C)ccc2s1 [Compound 35, (S)-methyl 5-(4-(4-((7-methoxy-5-oxo-2,3,5,11a-tetrahydro-1H-benzo[e]pyrrolo[1,2-a][1,4]diazepin-8-yl)oxy)butanamido)-1-methyl-1H-imidazole-2-carboxamido)benzo[b]thiophene-2-carboxylate]	0.06 mg/L (≈ 0.0931 µM)	0.06 mg/L (≈ 0.0931 µM)	0.06 mg/L (≈ 0.0931 µM)	0.06 mg/L (≈ 0.0931 µM)	0.06 mg/L (≈ 0.0931 µM)	0.06 mg/L (≈ 0.0931 µM)							
COC(=O)c1cc2cc(NC(=O)c3cc(NC(=O)CCCOc4cc5c(cc4OC)C(=O)N4CCC[C@H]4C=N5)cn3C)ccc2s1 [Compound 28, (S)-methyl 5-(4-(4-((7-methoxy-5-oxo-2,3,5,11a-tetrahydro-1H-benzo[e]pyrrolo[1,2-a][1,4]diazepin-8-yl)oxy)butanamido)-1-methyl-1H-pyrrole-2-carboxamido)benzo[b]thiophene-2-carboxylate]	0.06 mg/L (≈ 0.0932 µM)	0.06 mg/L (≈ 0.0932 µM)	0.125 mg/L (≈ 0.194 µM)	0.06 mg/L (≈ 0.0932 µM)	0.125 mg/L (≈ 0.194 µM)	0.06 mg/L (≈ 0.0932 µM)							

— patent US9321774B2, “Pyrrolobenzodiazepines” (MEDIMMUNE LIMITED, priority 2012, dated 2016)
